Source: publication PMC3352596 (Bioorganic & medicinal chemistry letters, 2011)
Each block holds one compound with its values, some of them ahead of it.

Key:
adenosine deaminase [1] = molecular target: T1, adenosine deaminase (Bos taurus, UniProt P56658); test: inhibition of ADA catalyzed conversion of adenosine to inosine; format: biochemical; details: compounds tested at 10 μM
T1 sequence (P56658 1-363): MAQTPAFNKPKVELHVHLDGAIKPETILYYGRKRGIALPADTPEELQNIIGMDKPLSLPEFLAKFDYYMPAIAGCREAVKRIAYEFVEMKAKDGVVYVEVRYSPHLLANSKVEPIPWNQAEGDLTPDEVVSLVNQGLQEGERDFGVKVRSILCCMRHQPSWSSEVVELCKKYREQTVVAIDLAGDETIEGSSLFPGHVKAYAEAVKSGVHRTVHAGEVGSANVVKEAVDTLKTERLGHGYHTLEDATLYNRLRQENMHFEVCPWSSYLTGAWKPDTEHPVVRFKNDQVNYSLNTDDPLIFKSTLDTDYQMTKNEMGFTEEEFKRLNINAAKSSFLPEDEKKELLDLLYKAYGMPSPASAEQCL

Huh7 cells = test: cytotoxicity in Huh7 cells by amplification of ribosomal RNA; format: cell-based; details: for inhibition at 10 µM: Homo sapiens, Huh-7, read-out: Anti-HCV activity: % inhib @ 10 μM in Huh7 cells, rRNA; for cytotoxicity / toxicity to cell lines: Huh7, PBM, CEM, Vero cell lines
adenosine deaminase [2] = molecular target: T1, adenosine deaminase; test: evaluation as substrates of adenosine deaminase; format: biochemical
[3] = system: HCV RNA replication (subgenomic HCV replicon); test: inhibition of HCV RNA replication in Huh7 cells, subgenomic HCV replicon system; format: cell-based, Hepatitis C virus; details: for antiviral activity or cytotoxicity: anti-HCV, anti-HIV and cytotoxicity assays of Table 1; for inhibition at 10 µM: Hepatitis C virus, Huh-7, read-out: Anti-HCV activity: % inhib @ 10 μM in Huh7 cells, HCV, 10 μM, Huh7 cells, HCV RNA
HCV = details: non-obligatory chain terminators toward RNA elongation; cited from earlier work
[4] = cited from earlier work
[5] = stability in pH 7.4 phosphate buffer; format: physicochemical; details: 23 °C, 3 days
[6] = cytotoxicity in CEM cells; format: cell-based; details: human, lymphoblastoid CEM cells

ability to inhibit ADA catalyzed conversion of adenosine to inosine (adenosine deaminase [1]): Only compound 21 was found effective
SMILES: C[C@@]1(O)[C@H](O)[C@@H](CO)O[C@H]1n1cnc2c(N)n[nH]c(=O)c21 [Compound 32, 4-amino-1-(2-methyl-β-D-ribofuranosyl)-3H-imidazo[4,5-d] pyriazin-7-(6H)-one]
inhibition at 10 µM (Huh7 cells): 0%
substrate of adenosine deaminase (nitrogen to oxygen transformation) (adenosine deaminase [2]): none underwent a nitrogen to oxygen transformation

SMILES: C[C@@]1(O)[C@H](O)[C@@H](CO)O[C@H]1n1cnc2c(N)nc(Cl)nc21 [Compound 17]
antiviral activity or cytotoxicity [3]: no antiviral activity or cytotoxicity

SMILES: Cc1nc2c3ncn([C@@H]4O[C@H](CO)[C@@H](O)[C@@]4(C)O)c3nc(N)n2n1 [Compound 13a]
inhibition at 10 µM (Huh7 cells): 0%

SMILES: Cc1nc(N)nc2c1ncn2[C@@H]1O[C@H](CO)[C@@H](O)[C@@]1(C)O [Compound 6]
inhibition at 10 µM (Huh7 cells): 0%

ability to inhibit ADA catalyzed conversion of adenosine to inosine (adenosine deaminase [1]): Only compound 21 was found effective
SMILES: C[C@@]1(O)[C@H](O)[C@@H](CO)O[C@H]1n1cnc2c(=O)[nH]nc(N)c21 [Compound 35, 7-amino-1-(2-methyl-δ -D-ribofuranosyl)-1H-imidazo [4,5-d] pyridazin-4-(5H)-one]
inhibition at 10 µM (Huh7 cells): 0%

SMILES: C[C@@]1(O)[C@H](O)[C@@H](CO)O[C@H]1n1cnc2c(N)ncnc21 [Compound 1, 2′-C-Methyl adenosine]
in vitro anti-HCV activity (HCV): selective in vitro anti-HCV activity
in vivo bioavailability [4]: poor bioavailability

SMILES: C[C@@]1(O)[C@H](O)[C@@H](CO)O[C@H]1n1cnc2c(N)nc(N=[N+]=[N-])nc21 [Compound 20]
antiviral activity or cytotoxicity [3]: no antiviral activity or cytotoxicity
inhibition at 10 µM (Huh7 cells): 0%

SMILES: CCOP(=O)(O)c1nc(N)nc2c1ncn2[C@@H]1O[C@H](CO)[C@@H](O)[C@@]1(C)O [Compound 10]
ability to inhibit ADA catalyzed conversion of adenosine to inosine (adenosine deaminase [1]): Only compound 21 was found effective
inhibition at 10 µM [3]: 19.3%
substrate of adenosine deaminase (nitrogen to oxygen transformation) (adenosine deaminase [2]): none underwent a nitrogen to oxygen transformation

SMILES: COc1nc(Cl)nc2c1ncn2[C@@H]1O[C@H](CO)[C@@H](O)[C@@]1(C)O [Compound 18]
inhibition at 10 µM [3]: 14.3%
antiviral activity or cytotoxicity [3]: no antiviral activity or cytotoxicity

SMILES: C[C@@]1(O)[C@H](O)[C@@H](CO)O[C@H]1n1cnc2c(N)nc(NN)nc21 [Compound 19]
cytotoxicity / toxicity to cell lines (Huh7 cells): no observed cytotoxicity
stability in phosphate buffer [5]: complete conversion of 19 to a complex mixture of products after 3 days

SMILES: CCOP(=O)(OCC)c1nc(N)nc2c1ncn2[C@@H]1O[C@H](CO)[C@@H](O)[C@@]1(C)O [Compound 9]
ability to inhibit ADA catalyzed conversion of adenosine to inosine (adenosine deaminase [1]): Only compound 21 was found effective
inhibition at 10 µM [3]: 18.7%
inhibition at 10 µM (Huh7 cells): 14.8%
substrate of adenosine deaminase (nitrogen to oxygen transformation) (adenosine deaminase [2]): none underwent a nitrogen to oxygen transformation

SMILES: C[C@@]1(O)[C@H](O)[C@@H](CO)O[C@H]1n1cnc2c(N)nc(-n3ccnn3)nc21 [Compound 21]
ability to inhibit ADA catalyzed conversion of adenosine to inosine (adenosine deaminase [1]): effective
antiviral activity or cytotoxicity [3]: no antiviral activity or cytotoxicity
inhibition at 10 µM (Huh7 cells): 0%
substrate of adenosine deaminase (nitrogen to oxygen transformation) (adenosine deaminase [2]): none underwent a nitrogen to oxygen transformation

SMILES: C[C@@]1(OC(=O)c2ccccc2)[C@H](OC(=O)c2ccccc2)[C@@H](COC(=O)c2ccccc2)O[C@H]1n1cnc2c(Cl)nc(NO)nc21 [Compound 27]
inhibition at 10 µM (Huh7 cells): 99.9%
cytotoxicity / toxicity to cell lines (Huh7 cells): broad toxicity against most cell lines tested

SMILES: C[C@@]1(O)[C@H](O)[C@@H](CO)O[C@H]1n1cnc2c(=N)n(N)[nH]c(=O)c21 [Compound 33]
inhibition at 10 µM (Huh7 cells): 0%

SMILES: C[C@@]1(O)[C@H](O)[C@@H](CO)O[C@H]1n1cnc2c(N)nc(-n3cc([Si](C)(C)C)nn3)nc21 [Compound 22]
antiviral activity or cytotoxicity [3]: no antiviral activity or cytotoxicity
inhibition at 10 µM (Huh7 cells): 0%

ability to inhibit ADA catalyzed conversion of adenosine to inosine (adenosine deaminase [1]): Only compound 21 was found effective
SMILES: C[C@@]1(O)[C@H](O)[C@@H](CO)O[C@H]1n1cnc2c1nc(N)n1nc(-c3ccco3)nc21 [Compound 13b]
inhibition at 10 µM (Huh7 cells): 0%

SMILES: C[C@@]1(OC(=O)c2ccccc2)[C@H](OC(=O)c2ccccc2)[C@@H](COC(=O)c2ccccc2)O[C@H]1n1cnc2c(N)nc(NO)nc21 [Compound 26]
cytotoxicity / toxicity to cell lines (Huh7 cells): broad toxicity against most cell lines tested
CC50 [6]: 27.4 µM

SMILES: C[C@@]1(O)[C@H](O)[C@@H](CO)O[C@H]1n1cnc2c(=O)[nH]c(N)nc21 [Compound 2, 2′-C-methyl guanosine]
in vitro anti-HCV activity (HCV): selective in vitro anti-HCV activity
in vivo bioavailability [4]: poor bioavailability

SMILES: CCOC(=O)[C@H](C)NP(=O)(OC[C@H]1O[C@@H](n2cnc3c(C)nc(N)nc32)[C@](C)(O)[C@@H]1O)Oc1ccccc1 (stereo partly shown) [Compound 7]
anti-HCV activity / inhibition of HCV replicon RNA replication ([3]; up to 10 μM): did not display any inhibition of HCV replicon RNA replication
inhibition at 10 µM (Huh7 cells): 0%
